Source: patent publication US6486202B1, “Inhibitors of isoprenyl transferase” (Eisai Company, Limited, priority 2001, dated 2002)
pIC50: −log10 of the molar value.

What was measured:
GGTase = GGTase (Homo sapiens, UniProt P49354+P53609); assay: GGTase prenylation assay (partially purified GGTase, recombinant H-ras 61 L CAIL, [3H] geranylgeranyl diphosphate); assay type: biochemical; settings: 5 μM recombinant H-ras (61 L, CAIL), 1 μM [3H] geranylgeranyl diphosphate
FTase = FTase (Homo sapiens, UniProt P49354+P49356); assay: FTase prenylation assay (partially purified FTase, recombinant H-ras, [3H] farnesyl pyrophosphate); assay type: biochemical; settings: 3 μM recombinant H-ras, 440 nM [3H] FPP, 15 minutes at 37° C.
MIA PaCa-2 cells [1] = assay: Anchorage-independent growth of tumor cells in culture, compound 10 and paclitaxel; assay type: cell-based; settings: for number of colonies: 17 day incubation
Experimental: 4×10^3MIA PaCa-2 cells (ATCC CRL1420) were seeded on 24-well culture plates in 0.2 mL of 0.33 Noble agar in 10% fetal calf serum/RPMI1640 medium over 0.4 mL of 0.66% Noble agar in the same culture medium. The top agar layer was overlayed with 0.2 mL of 0.66% Noble agar in culture medium. The upper agar was covered with 0.2 mL of culture medium containing the indicated concentration of paclitaxel and the indicated concentration of compound 10.
At the end of a 17 day incubation, 0.2 mL of 3.3 mg/mL 3-[4,5-dimethylthiazol-2-yl]-2,5-diphenyltetrazolium bromide in phosphate buffered saline was added and incubated for 1 hour. The number of stained colonies was analyzed with an image analyzer computer program.

MIA PaCa-2 cells [2] = assay: In vivo tumor model, subcutaneous MIA PaCa-2 tumors in nude mice; parameters: species or system nude mice (BALB/c-nu/nu)
Experimental: 5×10^6 MIA PaCa-2 cells in Hank's balanced salt solution were injected subcutaneously into the flanks of 6 to 8 week old female nude mice (BALB/c-nu/nu) at day 1. […] Compound 10 and paclitaxel were administered intravenously once a day for 5 days from day 6. Tumor volume was measured on the days indicated. Tumor volume was calculated according to the equation: tumor volume (mm^3)=(length×width^2)/2. The results are shown in FIG. 1, where the bars indicated standard deviation. The n value for the assays is 5.

[3] = test system: anchorage-independent cell growth; assay: Soft agar, anchorage-independent cell growth (Table 2); assay type: cell-based
[4] = test system: H-ras farnesylation in H-ras (61 L) transformed NIH3T3 fibroblasts; assay: Inhibition of H-ras farnesylation in whole cells (Western blot); assay type: cell-based; settings: treated 24 hours
Experimental: The ability of compounds of the invention to inhibit H-ras farnesylation and rapl geranylgeranylation in whole cells was determined. H-ras (61 L) transformed NIH3T3 fibroblasts were generously provided by C. Der, Univ. N. Carolina. These fibroblasts were treated for 24 hours with 50 μM lovastatin (control) or the indicated concentrations of inhibitor. The cells were lysed in 1% NP-40, 5mM Tris-HCl (pH 8.0), 5mM EDTA, 0.1mM N-tosyl-L-phenylalanine chloromethyl ketone, 0.1mM N-tosyl-L-lysine chloromethyl ketone, and 1 mM phenylmethylsulfonyl fluoride. The lysate was centrifuged (15000×g, 5 minutes.) and the supernatant was used as a cell extract. Total protein was separated by SDS-PAGE in 15% acrylamnide gel. After transfer to IMMOBILON P™ membrane (Millipore), the blots were probed with LA069 mouse monoclonal antibody to H-ras (Quality Biotech), or rabbit polyclonal antibody to rap1/Krev (Santa Cruz Biotechnology). All Western blots were developed using ECL chemiluminescent reagents (Amersham).

[5] = paclitaxel alone 6.25 mg/kg/day intravenously once a day for 5 days from day 6

## CSCCC(NC(=O)c1cc(CCCC(N)CS)ccc1C(C)C)C(=O)O (stereo not shown)
GGTase
  pIC50: 6.17
FTase
  pIC50: 8.10

## CSCCC(NC(=O)c1cc(CC=CC(N)CS)ccc1C(C)C)C(=O)O (stereo not shown)
GGTase
  pIC50: 6.35
FTase
  pIC50: 7.64

## CC(=O)O[C@H]1C(=O)[C@@]2(C)[C@H]([C@H](OC(=O)c3ccccc3)[C@]3(O)C[C@H](OC(=O)[C@H](O)[C@@H](NC(=O)c4ccccc4)c4ccccc4)C(C)=C1C3(C)C)[C@]1(OC(C)=O)CO[C@@H]1C[C@@H]2O [Paclitaxel, paclitaxel, reference compound]
MIA PaCa-2 cells [1]; paclitaxel 0.63 nM, compound 10 0 nM
  number of colonies: 235
MIA PaCa-2 cells [1]; paclitaxel 1.25 nM, compound 10 0 nM
  number of colonies: 234
MIA PaCa-2 cells [1]; paclitaxel 2.5 nM, compound 10 0 nM
  number of colonies: 172
MIA PaCa-2 cells [1]; paclitaxel 5 nM, compound 10 0 nM
  number of colonies: 48
MIA PaCa-2 cells [2]; [5]
  tumor growth: inhibited tumor growth
  tumor regression: no tumor regression ever occurred

## CSCCC(NC(=O)c1cc(CC=CC(N)CS)ccc1C)C(=O)O (stereo not shown)
GGTase
  pIC50: 5.66
FTase
  pIC50: 9.00

## CCc1ccc(CC=CC(N)CS)cc1C(=O)NC(CCSC)C(=O)OC (stereo not shown)
GGTase
  pIC50: 5.74
FTase
  pIC50: 6.25

## CCc1ccc(C/C=C/C(N)CS)cc1C(=O)N[C@@H](CCSC)C(=O)OC (stereo partly shown)
[3]
  pIC50: 7.89
[4]
  pIC50: 7.25

## COC(=O)[C@H](CCSC)NC(=O)c1cc(C/C=C/C(N)CS)ccc1C (stereo partly shown)
[3]
  pIC50: 7.12
[4]
  pIC50: 6.92

## CSCC[C@H](NC(=O)c1cc(C/C=C/C(N)CS)ccc1C)C(=O)O (stereo partly shown)
[3]
  pIC50: 5.05
[4]
  pIC50: 5.40

## COC(=O)[C@H](CCSC)NC(=O)c1cc(C/C=C/C(N)CS)ccc1C(C)C (stereo partly shown)
[3]
  pIC50: 7.96
[4]
  pIC50: 7.66

## COC(=O)C(CCSC)NC(=O)c1cc(CC=CC(N)CS)ccc1C (stereo not shown)
GGTase
  pIC50: 5.80
FTase
  pIC50: 6.52

## COC(=O)C(CCSC)NC(=O)c1cc(CCCC(N)CS)ccc1C(C)C (stereo not shown)
GGTase
  pIC50: 5.35
FTase
  pIC50: 7.14

## COC(=O)[C@H](CCSC)NC(=O)c1cc(CCC[C@@H](N)CS)ccc1C(C)C.Cl [Compound 10]
MIA PaCa-2 cells [1]; compound 10 3.13 nM + paclitaxel 0.63 nM
  number of colonies: 255
MIA PaCa-2 cells [1]; compound 10 3.13 nM + paclitaxel 1.25 nM
  number of colonies: 204
MIA PaCa-2 cells [1]; compound 10 3.13 nM + paclitaxel 2.5 nM
  number of colonies: 64
MIA PaCa-2 cells [1]; compound 10 3.13 nM + paclitaxel 5 nM
  number of colonies: 8
MIA PaCa-2 cells [1]; compound 10 3.13 nM, paclitaxel 0 nM
  number of colonies: 271
MIA PaCa-2 cells [1]; compound 10 6.25 nM + paclitaxel 0.63 nM
  number of colonies: 214
MIA PaCa-2 cells [1]; compound 10 6.25 nM + paclitaxel 1.25 nM
  number of colonies: 168
MIA PaCa-2 cells [1]; compound 10 6.25 nM + paclitaxel 2.5 nM
  number of colonies: 36
MIA PaCa-2 cells [1]; compound 10 6.25 nM + paclitaxel 5 nM
  number of colonies: 4
MIA PaCa-2 cells [1]; compound 10 6.25 nM, paclitaxel 0 nM
  number of colonies: 210
MIA PaCa-2 cells [1]; compound 10 12.5 nM + paclitaxel 0.63 nM
  number of colonies: 203
MIA PaCa-2 cells [1]; compound 10 12.5 nM + paclitaxel 1.25 nM
  number of colonies: 148
MIA PaCa-2 cells [1]; compound 10 12.5 nM + paclitaxel 2.5 nM
  number of colonies: 22
MIA PaCa-2 cells [1]; compound 10 12.5 nM + paclitaxel 5 nM
  number of colonies: 1
MIA PaCa-2 cells [1]; compound 10 12.5 nM, paclitaxel 0 nM
  number of colonies: 189
MIA PaCa-2 cells [1]; compound 10 25 nM + paclitaxel 0.63 nM
  number of colonies: 173
MIA PaCa-2 cells [1]; compound 10 25 nM + paclitaxel 1.25 nM
  number of colonies: 124
MIA PaCa-2 cells [1]; compound 10 25 nM + paclitaxel 2.5 nM
  number of colonies: 16
MIA PaCa-2 cells [1]; compound 10 25 nM + paclitaxel 5 nM
  number of colonies: 1
MIA PaCa-2 cells [1]; compound 10 25 nM, paclitaxel 0 nM
  number of colonies: 161
MIA PaCa-2 cells [1]; compound 10 50 nM + paclitaxel 0.63 nM
  number of colonies: 119
MIA PaCa-2 cells [1]; compound 10 50 nM + paclitaxel 1.25 nM
  number of colonies: 74
MIA PaCa-2 cells [1]; compound 10 50 nM + paclitaxel 2.5 nM
  number of colonies: 0
MIA PaCa-2 cells [1]; compound 10 50 nM + paclitaxel 5 nM
  number of colonies: 0
MIA PaCa-2 cells [1]; compound 10 50 nM, paclitaxel 0 nM
  number of colonies: 97
MIA PaCa-2 cells [1]; compound 10 100 nM + paclitaxel 0.63 nM
  number of colonies: 72
MIA PaCa-2 cells [1]; compound 10 100 nM + paclitaxel 1.25 nM
  number of colonies: 26
MIA PaCa-2 cells [1]; compound 10 100 nM + paclitaxel 2.5 nM
  number of colonies: 0
MIA PaCa-2 cells [1]; compound 10 100 nM + paclitaxel 5 nM
  number of colonies: 0
MIA PaCa-2 cells [1]; compound 10 100 nM, paclitaxel 0 nM
  number of colonies: 64
MIA PaCa-2 cells [1]; compound 10 200 nM + paclitaxel 0.63 nM
  number of colonies: 30
MIA PaCa-2 cells [1]; compound 10 200 nM + paclitaxel 1.25 nM
  number of colonies: 11
MIA PaCa-2 cells [1]; compound 10 200 nM + paclitaxel 2.5 nM
  number of colonies: 0
MIA PaCa-2 cells [1]; compound 10 200 nM + paclitaxel 5 nM
  number of colonies: 0
MIA PaCa-2 cells [1]; compound 10 200 nM, paclitaxel 0 nM
  number of colonies: 23
MIA PaCa-2 cells [1]; compound 10 400 nM + paclitaxel 0.63 nM
  number of colonies: 6
MIA PaCa-2 cells [1]; compound 10 400 nM + paclitaxel 1.25 nM
  number of colonies: 1
MIA PaCa-2 cells [1]; compound 10 400 nM + paclitaxel 2.5 nM
  number of colonies: 0
MIA PaCa-2 cells [1]; compound 10 400 nM + paclitaxel 5 nM
  number of colonies: 0
MIA PaCa-2 cells [1]; compound 10 400 nM, paclitaxel 0 nM
  number of colonies: 3
MIA PaCa-2 cells [1]; compound 10 at 3.13 to 200 nM with paclitaxel 2.5 to 5 nM
  interaction with paclitaxel: synergistic
MIA PaCa-2 cells [1]; compound 10 at 100 to 200 nM with 1.25 nM paclitaxel
  interaction with paclitaxel: synergistically tumoricidal
MIA PaCa-2 cells [2]; compound 10 25 mg/kg/day plus paclitaxel 6.25 mg/kg/day intravenously once a day for 5 days from day 6, by 20 days after tumor cell implantation
  tumor regression: all tumors in all mice had completely regressed

## COC(=O)C(CCSC)NC(=O)c1cc(CC=CC(N)CS)ccc1C(C)C (stereo not shown)
GGTase
  pIC50: 5.50
FTase
  pIC50: 7.10

## COC(=O)[C@H](CCSC)NC(=O)c1cc(CCCC(N)CS)ccc1C(C)C (stereo partly shown)
[3]
  pIC50: 7.72
[4]
  pIC50: 7.55

## CCc1ccc(CC=CC(N)CS)cc1C(=O)NC(CCSC)C(=O)O (stereo not shown)
GGTase
  pIC50: 6.38
FTase
  pIC50: 8.05

## CCc1ccc(C/C=C/C(N)CS)cc1C(=O)N[C@@H](CCSC)C(=O)O (stereo partly shown)
[3]
  pIC50: 6.02
[4]
  pIC50: 6.44

## CSCC[C@H](NC(=O)c1cc(CCCC(N)CS)ccc1C(C)C)C(=O)O (stereo partly shown)
[3]
  pIC50: 6.82
[4]
  pIC50: 6.41

## CSCCC(NC(=O)c1cc(CCCC(N)CS)ccc1C(C)C)C(=O)NCc1ccco1 (stereo not shown)
GGTase
  pIC50: 5.35
FTase
  pIC50: 7.17

## CSCC[C@H](NC(=O)c1cc(CCCC(N)CS)ccc1C(C)C)C(=O)NCc1ccco1 (stereo partly shown)
[3]
  pIC50: 6.52
[4]
  pIC50: 6.70

## CSCC[C@H](NC(=O)c1cc(C/C=C/C(N)CS)ccc1C(C)C)C(=O)O (stereo partly shown)
[3]
  pIC50: 6.80
[4]
  pIC50: 6.37
